Results reported in patent publication US20170234881A1, “METHODS OF DIAGNOSING AND TREATING CANCER” (INSERM ( INSTITUT NATIONAL DE LA SANTÉ ET DE LA RECHERCHE …, priority 2014, published 2017).

Experiments:
MCF7 tumors = assay: Growth of MCF7 tumors implanted s.c. into mice; assay type: in vivo
Experimental: FIG. 2. OCDO is a tumor promoter in vitro and in vivo and its inhibition contributes to the anti-tumor effects of Tam and DDA. (A, B) Histograms representing the effect of OCDO or 17β-estrogen (E2) on MCF7 (A) and TS/A (B) cell proliferation after 24 h treatment using a colorimetric immunoassay measuring BrDU incorporation in DNA (C, D) Histogram representing the effect of OCDO on MCF7 (C) and TS/A (D) cell invasion. Data are the mean of three separate experiments (±s.e.m), *P<0.05, **P<0.01, ***P<0.001 (Student's t-test). (E, F) Mice were implanted s.c. with MCF7 (E) or TS/A (F) cells and animals (8 per group) were treated s.c. every day starting on the day of implantation with either the solvent vehicle or OCDO (16 μg/kg for MCF7 or 50 μg/kg for TS/A). Animals were monitored for tumour growth twice a week. […] (G) Mean (±s.e.m) of Ki67 positive cell number determined from IHC staining of MCF7 tumor sections from (E), n=8, *P<0.05 (Student's t-test) using HistoQuant, Pannoramic Viewer (3DHistech). […]
Exponentially growing MCF7, ShMCF7, E0771, MDA-MB231, MDA-MB468 and TS/A cells were collected, washed twice in PBS and resuspended in PBS. […] Animals were examined daily, and body weights were measured twice per week. In all the experiments, the tumor volume was determined by direct measurement with a caliper and was calculated using the formula (width^2×length)/2. […]

shHSD2 MCF7 cells = assay: Proliferation of shHSD2 MCF7 cells (BrDU); assay type: cell-based, human; details: sh11HSD2 MCF7 cells, 24 h; OCDO 5 μM; cortisone increasing concentrations
Experimental: FIG. 7. Knock-down of 11βHSD2 decreases cell proliferation, invasion and survival in MCF7 cells as well as tumor growth and OCDO reverses these effects. shC or shHSD2 MCF7 cells were analyzed as followed: (A) The proliferation of sh-C or shHSD2 cells treated or not with OCDO 5 μM 24 h was measured using quantification of DNA BrDU incorporation as described in FIG. 2A. (B) The proliferation of sh-C or shHSD2 cells treated or not with increasing concentration of cortisone for 24 h was measured as in (A). (C) The invasiveness of sh-C or shHSD2 cells treated or not with OCDO 5 μM for 72 h was assayed using matrigel-coated filters. (D) the formation of colony by sh-C or shHSD2 cells treated or not with OCDO 1 μM was quantified as described in FIG. 6F. […] Animals were monitored for tumor growth twice a week. […] (F) Mean (±s.e.m) of Ki67 positive cell number determined from IHC staining of shC or shHSD2 MCF7 tumor sections from (E), n=8, *P<0.05 (Student's t-test) using HistoQuant, Pannoramic Viewer (3DHistech).
MCF7 or HEK293T cells (5×10^6 cells) were transfected with 5 μg of the indicated plasmid using the NEON Transfection System and according to the manufacturer's recommendations. […] Several clones were analyzed by immunoblot analysis and real time RT-qPCR for the knock down of the expression of the protein of interest. […]

CC(C)CCC[C@@H](C)[C@H]1CC[C@H]2[C@@H]3CC(=O)[C@@]4(O)C[C@@H](O)CC[C@]4(C)[C@H]3CC[C@]12C [OCDO, 6-oxo-cholestan-3β,5α-diol]
tumor growth compared with the control group (MCF7 tumors; MCF7 tumors in immunodeficient mice, OCDO 16 μg/kg s.c. every day): significantly increased | proliferative marker Ki67 in tumors compared with control-treated tumors (MCF7 tumors; MCF7 tumors, IHC): increased | effect on the inhibition of cell proliferation induced by 11βHSD2 knock-down (shHSD2 MCF7 cells): able to reverse the inhibition of cell proliferation
